Experimental data taken from US6670145B2, “Method for detection of total coliforms and E. coli” (The United States of America as represented by the …, priority 1991, dated 2003).
Structures can show the parent of a compound that is named as a salt. One block for each compound: values may come before it.

Tests used:
[1] = test system: total coliform colonies; experiment: Other β-galactosidase substrates tested with IBDG in the selective base medium; format: cell-based, total coliforms; conditions: β-galactosidase substrate tested with IBDG in selective base medium
Excerpt: (§1) The selective base medium without the substrates MUGal and IBDG (with or without agar) can be used with other β-galactosidase and β-glucuronidase substrates for the detection of total coliforms and/or E. coli. For example, each of three other β-galactosidase substrates (2-Nitrophenyl-β-D-galactopyranoside, Chlorophenol Red-β-galactopyranoside, and Resorufin-β-D-Galactopyranoside) have been tested with IBDG in this lab. […] We believe other combinations of substrates in this base medium would also work in the various embodiments described in this document, and different enzyme substrates (other than β-galactosidase and β-glucuronidase substrates) for specific coliforms could be used in this base medium because of its selectivity. The following guidance is provided for choosing ingredients for the alternative embodiments.

[2] = test system: Escherichia coli (ATCC 25922); experiment: Confirmatory spot test with enzyme substrates; format: cell-based; set-up: key to Reactions in Wells Containing: MUGal (fluorescence): +: A positive reaction is shown by fluorescence of the well under long wave ultraviolet light; key to Reactions in Wells Containing: IBDG (blue color): +: A positive reaction is shown by production of a blue color in the well; conditions: 35° C., up to 24 hours
Procedure: (§2) One hundred microliter volumes of a bacterial suspension were placed in three wells of a sterile porcelain spot test plate or other suitable plate with wells. The bacterial suspension was obtained in one of the following ways:
(§3) 1. A loopful of bacterial growth from a slant or an isolated colony from an agar plate was emulsified in a small amount of the liquid MI broth medium without substrates or other non-selective broths.
(§4) 2. Aliquots of 100 μl of a bacterial culture grown over-night at 35° C. in a non-selective broth or the liquid medium without substrates were used.
(§5) Sixty microliters of a freshly-prepared, filter-sterilized 16 mg/ml IBDG solution was added to one well of bacterial suspension, and 300 μl of a freshly-prepared, filter-sterilized 1 mg/ml MUGal solution was added to a second well. The third well, containing only bacterial suspension (negative control), was used as a comparator to distinguish positive and negative wells. Additional wells were inoculated with uninoculated medium, IBDG, and MUGal as controls. The plates were covered with sterile foil and incubated at 35° C. for up to 24 hours. […] This test could also be performed by adding all of the test liquids and culture or sample to a piece of filter paper or to an absorbent pad and observing the reactions.

[3] = test system: Escherichia coli (EPA 206); experiment: Confirmatory spot test with enzyme substrates; format: cell-based; set-up: key to Reactions in Wells Containing: MUGal (fluorescence): +: A positive reaction is shown by fluorescence of the well under long wave ultraviolet light; key to Reactions in Wells Containing: IBDG (blue color): +: A positive reaction is shown by production of a blue color in the well; conditions: 35° C., up to 24 hours
Procedure: as §2, §3, §4, §5

[4] = test system: E. coli colonies; experiment: Other β-galactosidase substrates tested with IBDG in the selective base medium; format: cell-based; conditions: IBDG with each of three other β-galactosidase substrates in selective base medium
Excerpt: as §1

[5] = test system: Enterobacter aerogenes (EPA 202); experiment: Confirmatory spot test with enzyme substrates; format: cell-based; set-up: key: +: A positive reaction is shown by fluorescence of the well under long wave ultraviolet light; conditions: 35° C., up to 24 hours, UV 366 nm
Procedure: as §2, §3, §4, §5

[6] = test system: Klebsiella pneumoniae (EPA 207); experiment: Confirmatory spot test with enzyme substrates; format: cell-based; set-up: key: +: A positive reaction is shown by fluorescence of the well under long wave ultraviolet light; conditions: 35° C., up to 24 hours, UV 366 nm
Procedure: as §2, §3, §4, §5

Compound: O=[N+]([O-])c1ccccc1O[C@@H]1O[C@H](CO)[C@H](O)[C@H](O)[C@H]1O [2-Nitrophenyl-β-D-galactopyranoside]
colors of the total coliform colonies [1]: yellow

Compound: O=S1(=O)OC(c2ccc(O)c(Cl)c2)(c2ccc(O[C@@H]3O[C@H](CO)[C@H](O)[C@H](O)[C@H]3O)c(Cl)c2)c2ccccc21 (stereo partly drawn) [Chlorophenol Red-β-galactopyranoside]
colors of the total coliform colonies [1]: orchid

Compound: O=C(O)[C@H]1O[C@@H](Oc2c[nH]c3ccccc23)[C@H](O)[C@@H](O)[C@@H]1O [IBDG, Indoxyl-Beta-D-glucuronide, sodium salt or cyclohexylammonium salt]
Reactions in Wells Containing: IBDG (blue color) [2]: +
Reactions in Wells Containing: IBDG (blue color) [3]: +
color of the E. coli colonies [4]: varying shades of blue

Reactions in Wells Containing: MUGal (fluorescence) [5]: +
Reactions in Wells Containing: MUGal (fluorescence) [6]: +
Compound: Cc1cc(=O)oc2cc(O[C@@H]3O[C@H](CO)[C@H](O)[C@H](O)[C@H]3O)ccc12 [MUGal, 4-Methylumbelliferyl-Beta-D-galactopyranoside]
Reactions in Wells Containing: MUGal (fluorescence) ([2]; UV 366 nm): +
Reactions in Wells Containing: MUGal (fluorescence) ([3]; UV 366 nm): +

Compound: O=c1ccc2nc3ccc(O[C@@H]4O[C@H](CO)[C@H](O)[C@H](O)[C@H]4O)cc3oc-2c1 [Resorufin-β-D-Galactopyranoside]
colors of the total coliform colonies [1]: pink-red
